Laboratory results reported in patent publication US9260504B2, “N- and C-terminal substituted antagonistic analogs of GH-RH” (University of Miami, priority 2008, dated 2016).
Marks after values point to notes of the source that are not given here.

Experiments:
[1] = molecular target: T1, pituitary receptors (Homo sapiens, UniProt Q02643); conditions: biological activity on the pituitary; cited from earlier work
T1 construct: host or cells: pituitary
T1 sequence (Q02643 23-423): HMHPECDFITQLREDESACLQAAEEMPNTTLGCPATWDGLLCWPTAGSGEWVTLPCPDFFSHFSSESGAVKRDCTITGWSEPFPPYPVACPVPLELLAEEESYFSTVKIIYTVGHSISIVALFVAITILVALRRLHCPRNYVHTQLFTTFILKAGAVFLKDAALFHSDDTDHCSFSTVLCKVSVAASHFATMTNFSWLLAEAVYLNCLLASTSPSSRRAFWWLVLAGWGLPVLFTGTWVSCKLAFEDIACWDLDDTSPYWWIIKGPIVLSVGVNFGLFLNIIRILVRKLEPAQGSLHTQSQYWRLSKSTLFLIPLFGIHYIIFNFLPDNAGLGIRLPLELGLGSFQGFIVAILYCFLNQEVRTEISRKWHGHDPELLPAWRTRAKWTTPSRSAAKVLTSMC

[2] = test system: H-460 human non-small cell lung cancer; assay: H-460 human non-SCLC xenografts in nude mice, Experiment 1; format: in vivo; conditions: 10 μg/day s.c., 28 days; means±S.E.
Protocol: Male nude mice were implanted s.c. with 3 mm^3 pieces of H-460 human non-SCLC tumor tissue on both flanks. When tumors had grown to a mean volume of approximately 90 mm^3, the mice were randomly assigned into 4 experimental groups with 10 animals in each group and received single daily injections for 28 days as follows: 1. Control (vehicle solution); 2. JMR-132 (10 μg/day s.c.); 3. Peptide 1109 (10 μg/day s.c.); 4. Peptide 11111 (10 μg/day s.c.). Tumor volumes were measured once a week. The experiment was ended on day 28 by sacrificing the mice under Isoflurane anesthesia. Resulting tumors were cleaned, weighed, and snap-frozen until further analyses. Statistical analyses of the measurement results were done by two-tailed t-test, p<0.05 being considered significant. Data are presented as the means±S.E.

[3] = test system: PC-3 human hormone-independent prostate cancer; assay: PC-3 human prostate cancer xenografts in nude mice, Experiment 1; format: in vivo; conditions: 10 μg/day s.c., daily for 35 days; means±S.E.
Protocol: (§1) Male nude mice were implanted s.c. with 3 mm^3 pieces of PC-3 human hormone-independent prostate cancer tissue on both flanks. When tumors reached a volume of approx. 50 mm^3, the mice were divided into 4 experimental groups with 8 to 10 animals in each group and received single daily injections for 35 days as follows: 1. Control (vehicle solution); 2. JMR-132 (10 μg/day s.c.); 3. Peptide 1109 (10 μg/day s.c.); 4. Peptide 11111 (10 μg/day s.c.); Tumor volumes were measured once a week. The experiment was ended on day 35 by sacrificing the mice under Isoflurane anesthesia. Resulting tumors were cleaned, weighed, and snap-frozen until further analyses. Statistical analyses of the measurement results were done by two-tailed t-test, p<0.05 being considered significant. Data are presented as the means±S.E.

[4] = test system: H-460 human non-small cell lung cancer; assay: H-460 human non-SCLC xenografts in nude mice, Experiment 2; format: in vivo; conditions: 5 μg/day s.c.; for Tumor growth after 4 weeks (%): means±S.E.; for Inhibition (%): after 4 weeks
Protocol: Male nude mice were implanted s.c. with 3 mm^3 pieces of H-460 human non-SCLC tumor tissue on both flanks. When tumors had grown to a mean volume of approximately 90 mm^3, the mice were randomly assigned into 12 experimental groups with 8 to 10 animals in each group and received single daily injections for 28 days as follows: 1. Control (vehicle solution); 2. JMR-132 (10 μg/day s.c.); 3. Peptide 11109 (5 μg/day s.c.); 4. Peptide 11113 (5 μg/day s.c.); 5. Peptide 11119 (5 μg/day s.c.); 6. Peptide 11209 (5 μg/day s.c.); 7. Peptide 11313 (5 μg/day s.c.); 8. Peptide 11408 (5 μg/day s.c.); 9. Peptide 11435 (5 μg/day s.c.); 10. Peptide 11459 (5 μg/day s.c.); 11. Peptide 11469 (5 μg/day s.c.); 12. Peptide 11491 (5 μg/day s.c.). Tumor volumes were measured once a week. The experiment was ended on day 28 by sacrificing the mice under Isoflurane anesthesia. Resulting tumors were cleaned, weighed, and snap-frozen until further analyses. Statistical analyses of the measurement results were done by two-tailed t-test, p<0.05 being considered significant. Data are presented as the means±S.E.

[5] = test system: PC-3 human hormone-independent prostate cancer; assay: PC-3 human prostate cancer xenografts in nude mice, Experiment 3; format: in vivo; conditions: 2 μg/day s.c., 28 days
Protocol: Male nude mice were implanted s.c. with 3 mm^3 pieces of PC-3 human hormone-independent prostate cancer tissue on both flanks. When tumors reached a volume of approximately 50 mm^3, the mice were divided into 12 experimental groups with 8 to 10 animals in each group and received single daily injections for 28 days as follows: 1. Control (vehicle solution); 2. JMR-132 (10 μg/day s.c.); 3. Peptide 11113 (2 μg/day s.c.); 4. Peptide 11119 (2 μg/day s.c.); 5. Peptide 11209 (2 μg/day s.c.); 6. Peptide 11313 (2 μg/day s.c.); 7. Peptide 11408 (2 μg/day s.c.); 8. Peptide 11435 (2 μg/day s.c.); 9. Peptide 11457 (2 μg/day s.c.); 10. Peptide 11459 (2 μg/day s.c.); 11. Peptide 11469 (2 μg/day s.c.); 12. Peptide 11491 (2 μg/day s.c.).
Tumor volumes were measured once a week. The experiment was ended on day 28 by sacrificing the mice under Isoflurane anesthesia. Resulting tumors were cleaned, weighed, and snap-frozen until further analyses. Statistical analyses of the measurement results were done by two-tailed t-test, p<0.05 being considered significant.

[6] = test system: Human ovarian cancer SKOV3 cells; assay: SKOV3 ovarian cancer xenografts in nude mice; format: in vivo; conditions: 5 μg/day s.c.
Excerpt: Human ovarian cancer SKOV3 cells growing exponentially were implanted info five female nude mice by subcutaneous (s.c.) injection of 10^7 cells in both flanks. Tumors That resulted after approximately 4 weeks in donor animals were then aseptically dissected and mechanically minced. Three mm^3 pieces of tumor tissue were transplanted subcutaneously into experimental animals with a trocar needle. When tumors reached an appropriate size (approximately 50 mm^3), mice were randomly divided into […]. The first was the control group, the second group was treated with daily s.c. injections of 5 μg P-11313, the third group was treated with daily s.c. injections of 5 μg P-11604, the fourth group was treated with daily s.c. injections of 5 μg P-11610. Tumor volume (length×width×height×0.5236) was measured every week and mean tumor volumes of each group were compared by Student's t-test. The study lasted 49 days. One week after end of treatment, mice were killed under anesthesia, tumors were snap frozen and stored at −70° C.

[7] = test system: rat anterior pituitary adenylate cyclase; conditions: cited from earlier work
[8] = test system: GH secretion; conditions: cited from earlier work
[9] = test system: PC-3 human hormone-independent prostate cancer; assay: PC-3 human prostate cancer xenografts in nude mice, Experiment 2; format: in vivo; conditions: for Inhibition (%): tumor growth after 2 weeks
Protocol: as §1
Experiment 2 was similar to Experiment 1. Experiment 2 was started when PC-3 tumors had grown to approximately 50 mm^3 in volume. At this time, the animals were divided into 5 experimental groups with 8 animals in each group, and received single daily injections for 14 days as follows: 1. Control (vehicle solution); 2. JMR-132 (10 μg/day s.c.); 3. Peptide 1109 (5 μg/day s.c.); 4. Peptide 11109 (5 μg/day s.c.); 5. Peptide 11109 (2 μg/day s.c.). Further details of Experiment 2 are the same as for Experiment 1

[10] = test system: Panc-1 human pancreatic cancer; assay: Panc-1 human pancreatic cancer xenografts in nude mice; format: in vivo; conditions: 10 μg/day s.c. for 36 days
Protocol: Panc-1 cancers were transplanted s.c. into both flank areas of 60 female nude mice, and allowed to grow for 105 days before starting the treatment with GH-RH antagonists. The mice were randomly assigned into 3 experimental groups with 8 animals in each group and received single daily injections for 36 days as follows: 1. Control (vehicle solution); 2. JMR-132 (10 μg/day s.c.); 3. Peptide 11457 (10 μg/day s.c.). Tumor volumes were measured once a week. The experiment was ended on day 82 by sacrificing the mice under Isoflurane anesthesia. Resulting tumors were cleaned, weighed, and snap-frozen until further analyses. Statistical analyses of the measurement results were done by two-tailed t-test, p<0.05 being considered significant. Data are presented as the means±S.E.

## Tyr-Ala-Asp-Ala-lle^5-Phe-Thr-Asn-Ser-Tyr^10-Arg-Lys-Val-Leu-Gly^15-Gln-Leu-Ser-Ala-Arg^20-Lys-Leu-Leu-Gln-Asp^25-Ile-Met-Ser-Arg^29-NH2 [GH-RH(1-29)]
[1]
  Potency relative to native GH-RH: ≥ 50%

## [(Ac-Ada)^0-Tyr^1, D-Arg^2, Cpa^6, Ala^8, Har^9, Tyr(Me)^10, His^11, Abu^15, His^20, Nle^27, D-Arg^28, Har^29]hGH-RH(1-29)NH2 [Peptide 11111]
[2]
  Tumor growth after 4 weeks (%): 2005 ± 541%
[3]
  Tumor growth after 5 weeks (%): 1215 ± 243%

## [(Ac-Amc)^0-Tyr^1, D-Arg^2, Cpa^6, Ala^8, Har^9, Tyr(Me)^10, His^11, Orn^12, Abu^15, His^20, Nle^27, D-Arg^28, Har^29-Agm^30]hGH-RH(1-29) [Peptide 11313]
[4]; 28 days
  Tumor growth after 4 weeks (%): 3091 ± 1215%
[4]
  Inhibition (%): 60.84%
[5]
  Tumor growth inhibition after 4 weeks (%): 78.20%
[6]; day 0 (baseline)
  TU growth (%): 100%
[6]; day 7
  TU growth (%): 147.84%
  TU inhibition (%): 31.04%
[6]; day 14
  TU growth (%): 140%
  TU inhibition (%): 50.04%
[6]; day 21
  TU growth (%): 196.6%
  TU inhibition (%): 63.83%
[6]; day 28
  TU growth (%): 249.65%
  TU inhibition (%): 70.35%
[6]; day 35
  TU growth (%): 201.5%
  TU inhibition (%): 77.43%
[6]; day 42
  TU growth (%): 274.05%
  TU inhibition (%): 77.83%
[6]; day 49
  TU growth (%): 328.63%
  TU inhibition (%): 74.16%

## [Ac-Tyr^1,D-Arg^2]hGH-RH(1-29)NH2 [standard antagonist]
[7]
  Effect on activation of adenylate cyclase by hGH-RH(1-29)NH2: prevent the activation of rat anterior pituitary adenylate cyclase
[8]; a patient with acromegaly
  Effect on GH levels: reduced GH levels
[8]; normal subjects, 400 μg/kg
  Effect on nocturnal GH secretion: eliminated nocturnal GH secretion

## [Dca^0-Tyr^1, D-Arg^2, Cpa^6, Ala^8, Har^9, Tyr(Me)^10, His^11, Abu^15, His^20, Nle^27, D-Arg^28, Har^29]hGH-RH(1-29)NH2 [Peptide 11109]
[4]; 28 days
  Effect on the growth of H-460 lung cancers in vivo: had no effect
  Tumor growth after 4 weeks (%): 7890 ± 4127%
[4]
  Inhibition (%): 0.05%
[9]; 2 μg/day s.c., 14 days
  Tumor growth after 2 weeks (%): 318%
[9]; 5 μg/day s.c., 14 days
  Tumor growth after 2 weeks (%): 217%
[9]; Peptide 1109 5 μg/day, Peptide 11109 5 and 2 μg/day, JMR-132 10 μg/day, 14 days
  Inhibition of PC-3 tumor growth compared with reference peptide JMR-132: inhibited the growth of PC-3 tumors more potently than reference peptide JMR-132
[9]; 2 μg/day s.c.
  Inhibition (%): 55.55%
[9]; 5 μg/day s.c.
  Inhibition (%): 69.68%

## [PhAc^0-Tyr^1, D-Arg^2, Cpa^6, Ala^8, Har^9, Tyr(Me)^10, His^11, Orn^12, Abu^15, His^20, Orn^21, Nle^27, D-Arg^28, Har^29-Ada^30]hGH-RH(1-29)NH2 [Peptide 11457]
[5]
  Tumor growth inhibition after 4 weeks (%): 85.98%
[10]; end of experiment day 82
  Tumor weights: 76 ± 166 mg
[10]; means±S.E.
  Tumor growth from day 1 to day 82 (%): 740 ± 1220 %
  Tumor volume on day 82 (mm^3): 262 ± 103* mm^3
[10]; observed for at least 82 days
  Effect on the growth of Panc-1 human pancreatic cancers: powerfully inhibited the growth of Panc-1 human pancreatic cancers
